Test results taken from ChEMBL document CHEMBL3046959, “Influence of Absolute Configuration of Indanofan on Herbicidal Activity” (2001).
The source made the active and inactive calls. The rule behind the calls is not given here.

Test system: Echinochloa crus-galli
Test: Herbicidal activity against 2.5 leaf stage of Echinochloa crus-galli (barnyard grass) after 2 weeks under greenhouse condition by pot test
Type: functional

SMILES | ED90
CCC1(CC2(c3cccc(Cl)c3)CO2)C(=O)c2ccccc2C1=O (racemic) | inactive
CCC1(CC2(c3cccc(Cl)c3)CO2)C(=O)c2ccccc2C1=O (single isomer, unassigned; (+)) [(RS)-INDANOFAN] | 0.0254 KgAi/ha
CCC1(CC2(c3cccc(Cl)c3)CO2)C(=O)c2ccccc2C1=O (single isomer, unassigned; (-)) [(RS)-INDANOFAN] | 0.0524 KgAi/ha
